molecular target: T1, catalytic domain of human Bub1 (amino acids 704-1085) (Homo sapiens, UniProt O43683); test: Bub1 kinase assay (TR-FRET); assay type: biochemical; conditions: TR-FRET; ATP 10 μM, peptide substrate 1 μM; 60 min at 22° C.; average or median if tested more than once; read-out: Inhibition of Bub1 kinase IC50
T1 construct: catalytic domain of human Bub1 (amino acids 704-1085); His6 (N); made in house; host or cells: Hi5 insect cells
Procedure, shortened: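 Human Bub1 catalytic domain (704-1085, His6-tagged, Hi5-expressed, ~200 ng/mL) preincubated with compound 15 min at 22 °C, then reacted 60 min at 22 °C with 10 μM ATP and 1 μM biotinylated peptide substrate, pH 7.5. EDTA stop; TR-FRET 665/620 ratio; IC50 from 4-parameter fit, 11 concentrations in duplicate.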

T1 sequence (O43683 704-1085): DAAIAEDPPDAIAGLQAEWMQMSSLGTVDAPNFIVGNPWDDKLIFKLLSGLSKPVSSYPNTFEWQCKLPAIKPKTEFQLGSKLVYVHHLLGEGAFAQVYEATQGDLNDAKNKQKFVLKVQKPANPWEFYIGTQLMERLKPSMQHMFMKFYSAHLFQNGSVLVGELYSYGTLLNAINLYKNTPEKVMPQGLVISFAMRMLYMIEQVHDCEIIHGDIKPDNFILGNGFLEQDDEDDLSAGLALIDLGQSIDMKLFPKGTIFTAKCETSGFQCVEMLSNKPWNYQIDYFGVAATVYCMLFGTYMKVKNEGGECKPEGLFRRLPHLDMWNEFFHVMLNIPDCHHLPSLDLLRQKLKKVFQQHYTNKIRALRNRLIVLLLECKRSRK

In order of rising IC50:
1. CC(=O)Nc1cc(-c2[nH]c3c(c2Nc2ccccc2)C(=O)CN(C(=O)CCS(C)(=O)=O)C3)ccn1 [Example 210, N-(4-6-[3-(Methylsulfonyl)propanoyl]-4-oxo-3-(phenylamino)-4,5,6,7-tetrahydro-1H-pyrrolo[2,3-c]pyridin-2-ylpyridin-2-yl)acetamide]  3 nM
2. CC(=O)Nc1cc(-c2[nH]c3c(c2Nc2ccccc2)C(=O)CN(C(=O)C(C)C(F)(F)F)C3)ccn1 (racemic) [Example 178, N-(4-{3-Anilino-4-oxo-6-[(2RS)-3,3,3-trifluoro-2-methylpropanoyl]-4,5,6,7-tetrahydro-1H-pyrrolo[2,3-c]pyridin-2-yl}pyridin-2-yl)acetamide]  5 nM
3. CCNC(=O)N1CC(=O)c2c([nH]c(-c3ccnc(NC(=O)[C@@H]4C[C@@H]4F)c3)c2Nc2ccccc2)C1 [Example 208, N-Ethyl-2-[2-([(1S,2S)-2-fluorocyclopropyl]carbonylamino)pyridin-4-yl]-4-oxo-3-(phenylamino)-1,4,5,7-tetrahydro-6H-pyrrolo[2,3-c]pyridine-6-carboxamide]  5 nM
4. COC(=O)N1CC(=O)c2c([nH]c(-c3ccnc(NC(=O)[C@@H]4C[C@H]4F)c3)c2Nc2ccccc2)C1 [Example 143, Methyl 3-anilino-2-[2-({[(1S,2R)-2-fluorocyclopropyl]carbonyl}amino)pyridin-4-yl]-4-oxo-1,4,5,7-tetrahydro-6H-pyrrolo[2,3-c]pyridine-6-carboxylate]  6 nM
5. COc1ccc(C(=O)Nc2cc(-c3[nH]c4c(c3Nc3ccccc3)C(=O)CN(C(C)=O)C4)ccn2)cc1F [Example 285, N-4-[6-Acetyl-4-oxo-3-(phenylamino)-4,5,6,7-tetrahydro-1H-pyrrolo[2,3-c]pyridin-2-yl]pyridin-2-yl-3-fluoro-4-methoxybenzamide]  6 nM
6. CC(=O)Nc1cc(-c2[nH]c3c(c2Nc2ccccc2)C(=O)CN(C(=O)N2CCCC2)C3)ccn1 [Example 126, N-{4-[3-Anilino-4-oxo-6-(pyrrolidin-1-ylcarbonyl)-4,5,6,7-tetrahydro-1H-pyrrolo[2,3-c]pyridin-2-yl]pyridin-2-yl}acetamide]  7 nM
7. COC(=O)N1CC(=O)c2c([nH]c(-c3ccnc(NC(=O)C4CC4(F)F)c3)c2Nc2ccccc2)C1 (racemic) [Example 146, Methyl 3-anilino-2-[2-({[(1RS)-2,2-difluorocyclopropyl]carbonyl}amino)pyridin-4-yl]-4-oxo-1,4,5,7-tetrahydro-6H-pyrrolo[2,3-c]pyridine-6-carboxylate]  10 nM
8. CC(=O)Nc1cc(-c2[nH]c3c(c2Nc2ccccc2)C(=O)CN(C(=O)N2CCOCC2)C3)ccn1 [Example 125, N-{4-[3-Anilino-6-(morpholin-4-ylcarbonyl)-4-oxo-4,5,6,7-tetrahydro-1H-pyrrolo[2,3-c]pyridin-2-yl]pyridin-2-yl}acetamide]  10 nM
9. CC(C)OC(=O)N1CC(=O)c2c([nH]c(-c3ccnc(NC(=O)c4cncs4)c3)c2Nc2ccccc2)C1 [Example 156, Isopropyl 3-anilino-4-oxo-2-{2-[(1,3-thiazol-5-ylcarbonyl)amino]pyridin-4-yl}-1,4,5,7-tetrahydro-6H-pyrrolo[2,3-c]pyridine-6-carboxylate]  12 nM
10. O=C1CSCc2[nH]c(-c3ccncc3)c(Nc3ccccc3)c21 [Example 4, 3-(phenylamino)-2-(pyridin-4-yl)-1,7-dihydrothiopyrano[3,4-b]pyrrol-4(5H)-one]  19 nM
11. CC(=O)Nc1cc(-c2[nH]c3c(c2Nc2ccccc2)C(=O)CN(C(=O)CC(C)(C)O)C3)ccn1 [Example 177, N-{4-[3-Anilino-6-(3-hydroxy-3-methylbutanoyl)-4-oxo-4,5,6,7-tetrahydro-1H-pyrrolo[2,3-c]pyridin-2-yl]pyridin-2-yl}acetamide]  23 nM
12. CC(=O)Nc1cc(-c2[nH]c3c(c2Nc2ccc(C)cc2)C(=O)CN(S(=O)(=O)C(C)C)C3)ccn1 [Example 318, N-(4-(3-[(4-Methylphenyl)amino]-4-oxo-(propan-2-ylsulfonyl)-1,5,6,7-tetrahydro-1H-pyrrolo[2,3-c]pyridin-2-yl)pyridin-2-yl)acetamide]  31 nM
13. CCC(=O)Nc1cc(-c2[nH]c3c(c2Nc2ccccc2)C(=O)COC3)ccn1 [Example 44, N-{4-[4-Oxo-3-(phenylamino)-1,4,5,7-tetrahydropyrano[3,4-b]pyrrol-2-yl]pyridin-2-yl}propanamide]  50 nM
14. COC(=O)N1CC(=O)c2c([nH]c(-c3ccncc3OCC(F)(F)F)c2Nc2ccccc2)C1 [Example 242, Methyl 4-oxo-3-(phenylamino)-2-[3-(2,2,2-trifluoroethoxy)pyridin-4-yl]-1,4,5,7-tetrahydro-6H-pyrrolo[2,3-c]pyridine-6-carboxylate]  57 nM
15. COC(=O)N1CC(=O)c2c([nH]c(-c3ccnc(C)n3)c2Nc2ccccc2)C1 [Example 27, Methyl 2-(2-methylpyrimidin-4-yl)-4-oxo-3-(phenylamino)-1,4,5,7-tetrahydro-6H-pyrrolo[2,3-c]pyridine-6-carboxylate]  59 nM
16. CCNC(=O)Nc1cc(-c2[nH]c3c(c2Nc2ccccc2)C(=O)COC3)ccn1 [Example 54, 1-Ethyl-3-{4-[4-oxo-3-(phenylamino)-1,4,5,7-tetrahydropyrano[3,4-b]pyrrol-2-yl]pyridin-2-yl}urea]  77 nM
17. Cc1cc(F)ccc1C(=O)Nc1cc(-c2[nH]c3c(c2Nc2ccccc2)C(=O)CNC3)ccn1 [Example 264, 4-Fluoro-2-methyl-N-4-[4-oxo-3-(phenylamino)-4,5,6,7-tetrahydro-1H-pyrrolo[2,3-c]pyridin-2-yl]pyridin-2-ylbenzamide]  81 nM
18. O=C1CNCc2[nH]c(-c3ccnc(NC(=O)[C@@H]4C[C@@H]4F)c3)c(Nc3ccccc3)c21 (relative stereo) [Example 136, rel-(1S,2S)—N-[4-(3-Anilino-4-oxo-4,5,6,7-tetrahydro-1H-pyrrolo[2,3-c]pyridin-2-yl)pyridin-2-yl]-2-fluorocyclopropanecarboxamide]  81 nM
19. CS(=O)(=O)CC(=O)Nc1cc(-c2[nH]c3c(c2Nc2ccccc2)C(=O)COC3)ccn1 [Example 48, 2-(Methylsulfonyl)-N-{4-[4-oxo-3-(phenylamino)-1,4,5,7-tetrahydropyrano[3,4-b]pyrrol-2-yl]pyridin-2-yl}acetamide]  115 nM
20. COc1cc(C(=O)Nc2cc(-c3[nH]c4c(c3Nc3ccccc3)C(=O)CN(C(=O)SC(C)(C)C)C4)ccn2)ccc1F [Example 306, S-tert-butyl 3-anilino-2-{2-[(4-fluoro-3-methoxybenzoyl)amino]pyridin-4-yl}-4-oxo-1,4,5,7-tetrahydro-6H-pyrrolo[2,3-c]pyridine-6-carbothioate]  171 nM
21. O=C1CNCc2[nH]c(-c3ccncc3OCC(F)F)c(Nc3ccccc3)c21 [Example 224, 3-anilino-2-[3-(2,2-difluoroethoxy)pyridin-4-yl]-1,5,6,7-tetrahydro-4H-pyrrolo[2,3-c]pyridin-4-one]  222 nM
22. O=C1CNCc2[nH]c(-c3ccnc(NC(=O)[C@H]4C[C@H]4F)c3)c(Nc3ccccc3)c21 [Example 138, (1R,2R)—N-[4-(3-Anilino-4-oxo-4,5,6,7-tetrahydro-1H-pyrrolo[2,3-c]pyridin-2-yl)pyridin-2-yl]-2-fluorocyclopropanecarboxamide]  224 nM
23. O=C1CSCc2[nH]c(-c3ccncc3C(F)(F)F)c(Nc3ccccc3)c21 [Example 299, 3-(Phenylamino)-2-[3-(trifluoromethyl)pyridin-4-yl]-1,7-dihydrothiopyrano[3,4-b]pyrrol-4(5H)-one]  7360 nM
24. O=C1COCc2[nH]c(-c3ccncc3C(F)(F)F)c(Nc3ccccc3)c21 [Example 300, 3-(Phenylamino)-2-[3-(trifluoromethyl)pyridin-4-yl]-1,7-dihydropyrano[3,4-b]pyrrol-4(5H)-one]  8210 nM

From US20200216439A1, “HETERO-1,5,6,7-TETRAHYDRO-4H-INDOL-4-ONES” (BAYER PHARMA AKTIENGESELLSCHAFT, priority 2015, published 2020)
